Experimental data taken from patent US12427146B2, “C-terminal SRC kinase inhibitors” (INVENTISBIO CO., LTD., priority 2018, dated 2025).

What was measured:
CSK protein = CSK protein (Homo sapiens (Human), UniProt P41240); assay: CSK Inhibition Assay; type: biochemical
Description: Test compound was dissolved in DMSO at 10 mM. 45 uL of compound was transferred into a 384-well compound source plate (LABCYTE cat #P-05525) and serially diluted at 1:3 ratio to create a 11-point dilutions. The same volume of DMSO was adopted as high control. 20 nL of these compounds DMSO dilutes were dispensed into a new 384-well assay plate by Echo 550. […] 15 uL of kinase assay buffer containing CSK protein and substrate was transferred to assay plate and incubated at RT for 30 minutes. Kinase assay buffer supplemented with substrate peptides was employed as low control to monitor the background. 4 μM of ATP was prepared in kinase assay buffer and 5 μL of ATP solution was added to each well to start the reaction. The assay plate was incubated at 25° C. for 90 minutes and the reaction was stopped by adding 40 μL of 0.5 M EDTA.
(§1) Phosphorylated fluorescent-tagged peptides were differentiated from non-phosphorylated peptides by separating using Caliper EZ Reader II and the detection was directly converted to conversion ratio.
(§2) For estimation of IC50, the % substrate conversion values are transformed to % Inhibition Ratio by applying the following equation: […]

LCK protein = LCK protein (Homo sapiens (Human), UniProt P06239); assay: LCK Inhibition Assay; type: biochemical
LCK protein, sequence (P06239 whole entry): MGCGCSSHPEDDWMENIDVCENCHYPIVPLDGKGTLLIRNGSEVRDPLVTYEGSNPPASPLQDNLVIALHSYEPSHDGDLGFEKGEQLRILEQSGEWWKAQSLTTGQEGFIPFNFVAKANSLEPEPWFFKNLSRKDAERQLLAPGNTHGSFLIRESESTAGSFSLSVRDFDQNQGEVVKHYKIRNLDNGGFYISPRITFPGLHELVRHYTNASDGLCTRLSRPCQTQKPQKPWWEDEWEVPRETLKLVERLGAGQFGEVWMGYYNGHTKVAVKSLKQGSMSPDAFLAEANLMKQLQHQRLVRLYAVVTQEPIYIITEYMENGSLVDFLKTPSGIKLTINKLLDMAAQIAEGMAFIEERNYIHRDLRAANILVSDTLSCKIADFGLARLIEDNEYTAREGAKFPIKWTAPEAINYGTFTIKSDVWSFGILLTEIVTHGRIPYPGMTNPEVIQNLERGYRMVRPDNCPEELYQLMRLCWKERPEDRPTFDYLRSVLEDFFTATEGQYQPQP
Description: Test compound was dissolved in DMSO at 10 mM. 45 uL of compound was transfer into a 384-well compound source plate (LABCYTE cat #P-05525) and serially diluted at 1:3 ratio to create a 11-point dilutions. The same volume of DMSO was adopted as high control. 20 nL of these compounds DMSO dilutes were dispensed into a new 384-well assay plate by Echo 550. LCK protein (0.50 nM, Cama Biosciences, cat #08-170), florescent labeled substrate FLPeptide4 (2 μM, PerkinElmer, cat #760348) was prepared in kinase assay buffer (50 mM HEPES (pH 7.5), 10 mM MgCl2, 0.01% Brij-35, 2 mM DTT and 0.005 mg/ml BSA). 15 uL of kinase assay buffer containing LCK protein and substrate was transferred to assay plate and incubate at RT for 30 minutes. Kinase assay buffer supplemented with substrate peptides was employed as low control to monitor the background. 400 μM ATP was prepared in kinase assay buffer and 5 μL of ATP solution was added to each well to start the reaction. The assay plate was incubated at 25° C. for 90 minutes and the reaction was stopped by adding 40 μL of 0.5 M EDTA.
as §1, §2

| IC50 (CSK protein) | IC50 (LCK protein) | selectivity over LCK (CSK protein; CSK inhibition over LCK) | SMILES |
| --- | --- | --- | --- |
| 41.3 nM | > 1000 nM | – | CNC(=O)N[C@@H](C)CNc1nccc(-c2sc(-c3ccccc3)nc2-c2cccc(NS(=O)(=O)c3c(F)cccc3F)c2F)n1 [compound 45] |
| 12.7 nM | 100 to 1000 nM | – | CNc1nccc(-c2sc(N3CC(F)(F)C3)nc2-c2cccc(NS(=O)(=O)c3c(F)cccc3F)c2F)n1 [Compound 168] |
| 73.9 nM | > 1000 nM | – | CNc1nccc(-c2sc(-c3cncc(C(F)(F)F)c3)nc2-c2cccc(NS(=O)(=O)c3c(F)cccc3F)c2F)n1 [Compound 75] |
| 98.6 nM | > 1000 nM | – | NC(=O)c1ccn2c(-c3ccnc(N)n3)c(-c3cccc(NS(=O)(=O)c4c(F)cccc4F)c3F)nc2c1 [Compound 94] |
| 184 nM | > 1000 nM | – | CNc1nccc(-c2sc(-c3ccc(F)cn3)nc2-c2cccc(NS(=O)(=O)c3c(F)cc(Cl)cc3F)c2F)n1 [Compound 134] |
| 11.8 nM | > 1000 nM | – | CC(C)Nc1nccc(-c2sc(-c3cncc(F)c3)nc2-c2cccc(NS(=O)(=O)c3c(F)cccc3F)c2F)n1 [Compound 78] |
| 842 nM | > 1000 nM | – | Nc1nccc(-c2sc(-c3ccccc3)nc2-c2cccc(NS(=O)(=O)c3ccc4[nH]ncc4c3)c2F)n1 [Compound 83] |
| 10.5 nM | > 1000 nM | – | Cc1ncc(-c2nc(-c3cccc(NS(=O)(=O)c4c(Cl)ccc(C)c4Cl)c3F)c(-c3ccnc(N)n3)s2)cn1 [Compound 142] |
| 43.3 nM | > 1000 nM | – | Nc1nccc(-c2sc(-c3ccccc3)nc2-c2cccc(NS(=O)(=O)c3c(F)cccc3F)c2F)n1 [compound 2] |
| 41.8 nM | > 1000 nM | – | CNc1nccc(-c2sc(-c3cccc(F)c3)nc2-c2cccc(NS(=O)(=O)c3c(F)ccc(C)c3F)c2F)n1 [Compound 71] |
| 63.6 nM | > 1000 nM | – | COC(=O)N[C@@H](C)CNc1nccc(-c2sc(-c3ccccc3)nc2-c2cccc(NS(=O)(=O)c3c(F)cccc3F)c2F)n1 [Compound 16] |
| 16.2 nM | > 1000 nM | – | O=S(=O)(Nc1cccc(-c2nc(-c3cncc(F)c3)sc2-c2ccnc(NC3CC3)n2)c1F)c1c(F)cccc1F [Compound 68] |
| 29.4 nM | 100 to 1000 nM | – | Cc1cncc(-c2nc(-c3cccc(NS(=O)(=O)c4c(F)cccc4F)c3F)c(-c3ccnc(N)n3)s2)c1 [Compound 47] |
| 76.3 nM | > 1000 nM | – | COc1ccc(F)c(S(=O)(=O)Nc2cccc(-c3nc(-c4cncc(F)c4)sc3-c3ccnc(N)n3)c2F)c1F [compound 50] |
| 7.4 nM | > 1000 nM | – | COc1ccn2c(-c3ccnc(NC4CC4)n3)c(-c3cccc(NS(=O)(=O)c4c(F)ccc(C)c4F)c3F)nc2c1 [Compound 129] |
| 14.8 nM | > 1000 nM | – | CNc1nccc(-c2sc(-c3cncnc3)nc2-c2cccc(NS(=O)(=O)c3c(F)ccc(C)c3F)c2F)n1 [Compound 73] |
| 47 nM | > 1000 nM | – | CCNc1nccc(-c2sc(-c3ccc(F)cn3)nc2-c2cccc(NS(=O)(=O)c3c(F)ccc(C)c3F)c2F)n1 [Compound 56] |
| 19.6 nM | > 1000 nM | – | O=S(=O)(Nc1cccc(-c2nc(-c3cncc(F)c3)sc2-c2ccnc(NCCO)n2)c1F)c1c(F)cccc1F [Compound 66] |
| 16.5 nM | > 1000 nM | – | CNc1nccc(-c2sc(-c3cncc(F)c3)nc2-c2cc(Cl)cc(NS(=O)(=O)c3c(F)cccc3F)c2F)n1 [Compound 140] |
| 595 nM | > 1000 nM | – | COc1ccccc1Nc1nccc(-c2sc(-c3ccc(F)cn3)nc2-c2cccc(NS(=O)(=O)c3c(F)cccc3F)c2F)n1 [Compound 33] |
| 321 nM | – | – | CCn1c(-c2ccccc2)nc(-c2ccnc(N)n2)c1-c1cccc(NS(=O)(=O)c2c(F)cccc2F)c1F [Compound 89] |
| 52.7 nM | > 1000 nM | – | COc1ccn2c(-c3ccnc(N)n3)c(-c3cccc(NS(=O)(=O)c4c(F)cccc4F)c3F)nc2c1 [compound 91] |
| 8.8 nM | > 1000 nM | – | CNc1nccc(-c2sc(-c3cncc(F)c3)nc2-c2cccc(NS(=O)(=O)c3c(F)cccc3F)c2F)n1 [Compound 74] |
| 6.4 nM | 100 to 1000 nM | – | CNc1nccc(-c2sc(N3CCC(F)(F)C3)nc2-c2cccc(NS(=O)(=O)c3c(F)cccc3F)c2F)n1 [Compound 162] |
| 42.9 nM | > 1000 nM | – | CNc1nccc(-c2sc(-c3ccc(F)cn3)nc2-c2cccc(NS(=O)(=O)c3c(F)cccc3F)c2F)n1 [compound 34] |

| IC50 (CSK protein) | IC50 (LCK protein) | selectivity over LCK (CSK protein; CSK inhibition over LCK) | SMILES |
| --- | --- | --- | --- |
| 2.9 nM | 100 to 1000 nM | – | COc1ccc(Nc2nccc(-c3sc(-c4ccc(F)cn4)nc3-c3cccc(NS(=O)(=O)c4c(F)cccc4F)c3F)n2)cn1 [Compound 32] |
| 19.8 nM | 100 to 1000 nM | – | Nc1ncc(-c2nc(-c3cccc(NS(=O)(=O)c4c(F)cccc4F)c3F)c(-c3ccnc(N)n3)s2)cn1 [compound 6] |
| 108 nM | > 1000 nM | – | Cc1ccc(Cl)c(S(=O)(=O)Nc2cccc(-c3nc(-c4ccc(F)cn4)sc3-c3ccnc(NCCO)n3)c2F)c1Cl [Compound 136] |
| 1220 nM | – | – | Cn1c(-c2ccccc2)nc(-c2ccnc(N)n2)c1-c1cccc(NS(=O)(=O)c2c(F)cccc2F)c1F [Compound 86] |
| 105 nM | – | – | COc1ccn2c(-c3ccnc(N)n3)c(-c3cccc(NS(=O)(=O)c4c(F)ccc(C)c4F)c3F)nc2c1 [Compound 99] |
| 6 nM | > 1000 nM | – | O=S(=O)(Nc1cccc(-c2nc(-c3cncc(F)c3)sc2-c2ccnc(NC3CC3)n2)c1F)c1c(Cl)cccc1Cl [Compound 80] |
| 8.3 nM | > 1000 nM | – | CNc1nccc(-c2sc(N(C)C)nc2-c2cccc(NS(=O)(=O)c3c(Cl)ccc(C)c3Cl)c2F)n1 [Compound 182] |
| 75.8 nM | > 1000 nM | – | Nc1nccc(-c2sc(-c3cncc(C4CC4)c3)nc2-c2cccc(NS(=O)(=O)c3c(F)cccc3F)c2F)n1 [compound 48] |
| 23.2 nM | > 1000 nM | – | CNc1nccc(-c2sc(-c3ccc(F)cn3)nc2-c2cccc(NS(=O)(=O)c3c(Cl)cccc3Cl)c2F)n1 [Compound 123] |
| 30.2 nM | > 1000 nM | – | CNc1nccc(-c2sc(-c3ccc(F)cn3)nc2-c2cccc(NS(=O)(=O)c3c(Cl)ccc(C)c3Cl)c2F)n1 [Compound 126] |
| 15.7 nM | > 1000 nM | – | O=S(=O)(Nc1cccc(-c2nc(-c3ccc(F)cn3)sc2-c2ccnc(NC3CC3)n2)c1F)c1c(Cl)cccc1Cl [Compound 135] |
| 20.6 nM | < 100 nM | – | CC(C)c1nc(-c2cccc(NS(=O)(=O)c3c(F)cccc3F)c2F)c(-c2ccnc(Nc3ccccc3)n2)s1 [Compound 120] |
| 51.8 nM | > 1000 nM | – | CNc1nccc(-c2c(-c3cccc(NS(=O)(=O)c4c(F)ccc(C)c4F)c3F)nc3cc(OC)ccn23)n1 [Compound 103] |
| 19.5 nM | > 1000 nM | – | Cc1ccc(F)c(S(=O)(=O)Nc2cccc(-c3nc(-c4cc(F)ccn4)sc3-c3ccnc(N)n3)c2F)c1F [Compound 52] |
| 1060 nM | – | – | Nc1nccc(-c2sc(-c3cccc(N4CCC4)n3)nc2-c2cccc(NS(=O)(=O)c3c(F)cccc3F)c2F)n1 [compound 1] |
| ~50 nM | – | about 10 fold | CC(C)(C)c1nc(-c2cccc(NS(=O)(=O)c3c(F)cccc3F)c2F)c(-c2ccnc(N)n2)s1 [Dabrafenib, reference compound] |
| > 10000 nM | – | – | O=S(=O)(Nc1cccc(-c2nc(-c3ccccc3)sc2-c2ccnc(NC3CCNCC3)n2)c1F)c1c(F)cccc1F [compound 8] |
| > 10000 nM | – | – | Nc1nccc(-c2sc(-c3ccccc3)nc2-c2cccc(NS(=O)(=O)c3c(F)cccc3F)n2)n1 [Compound 26] |
| – | 100 to 1000 nM | – | COc1cc(NS(=O)(=O)c2c(F)cccc2F)cc(-c2nc(-c3cncc(F)c3)sc2-c2ccnc(N)n2)c1 [Compound 21] |
| 947 nM | – | – | Cn1c(-c2ccccc2)nc(-c2cccc(NS(=O)(=O)c3c(F)cccc3F)c2F)c1-c1ccnc(N)n1 [Compound 87] |
| 345 nM | – | – | C[C@@H](Nc1nccc(-c2sc(-c3ccccc3)nc2-c2cccc(NS(=O)(=O)c3c(F)cccc3F)c2F)n1)C(N)=O [Compound 49] |
| > 10000 nM | – | – | CN(C)c1nccc(-c2sc(-c3ccccc3)nc2-c2cccc(NS(=O)(=O)c3c(F)cccc3F)c2F)n1 [compound 37] |
| > 10000 nM | – | – | CCn1c(-c2ccccc2)nc(-c2cccc(NS(=O)(=O)c3c(F)cccc3F)c2F)c1-c1ccnc(N)n1 [compound 88] |
| > 10000 nM | – | – | O=S(=O)(Nc1cccc(-c2nc(-c3ccc(F)cn3)sc2-c2ccnc(NC3CCCC3)n2)c1F)c1c(F)cccc1F [Compound 31] |
| 251 nM | – | – | Nc1nccc(-c2sc(-c3ccccc3)nc2-c2cccc(NS(=O)(=O)c3ccc4ocnc4c3)c2F)n1 [compound 57] |
